We go through one compound from PMC7297445, “Pharmacokinetic/Pharmacodynamic Determination and Preclinical Pharmacokinetics of the β-Lactamase Inhibitor ETX1317 and Its Orally Available Prodrug ETX0282” (ACS Infectious Diseases, 2020).

Read-outs that look alike come from different tables or passages of the source.

Series [1] can be described thus: Intravenous pharmacokinetics of ETX1317. The format is in vivo, monkey. The method, then:
Intravenous pharmacokinetics of ETX1317 investigated in jugular vein cannulated male Sprague–Dawley rats (Charles River Laboratories, n = 3/route) at a dose of 10 mg/kg formulated in 0.9% saline. Oral pharmacokinetics of ETX0282 was evaluated at a 10 mg/kg equivalent dose of ETX1317 formulated in 25:75 PEG 400:WFI. The pH of each formulation was verified to fall within a range of 4–7 and were confirmed to be in solution prior to dosing. Potency was verified by LC/MS/MS. Dose volumes were 5 and 10 mL/kg for ETX1317(i.v.) and ETX0282(p.o.), respectively for rats. In both dog (male, 3/route) and monkey (male, 3/route) studies, i.v. and p.o. doses were formulated on 25:75 PEG 400:WFI (pH ∼5) and administered at a dose of ∼1 mg/kg. Dose volume was 1 mL/kg for both routes in dogs and monkeys with the i.v. dose infused over 15 min. For oral doses, gavage tubes were flushed with 10 mL after administration of the dose. i.v. doses were sterile-filtered through 0.22 μm PVDF membrane prior to administration into the cephalic vein.
Blood sampling (∼1 mL) for dogs and monkeys was carried out via venipuncture of the jugular vein at the following time points:
i.v.: pre-dose, 0.083, 0.25 (prior to end of infusion), 0.5, 1, 1.5, 2, 4, 6, 8, 12, and 24 h post-dose
Blood samples were centrifuged at 3200 rpm for 10 min at approximately 5 °C. Plasma samples (500 μL) were transferred to 96-well plate tubes (MatrixTech, 0.5 mL). An equal amount (500 μL) of SIGMAFAST protease inhibitor solution (1 tablet dissolved in 10 mL distilled water, Sigma-Aldrich Part No. S8820) was added as a preservative to the 96-well plate tubes resulting in a 1:1 dilution. Diluted plasma samples were stored at −80 ± 10 °C.
Urine collection was collected directly into Nalgene bottles placed under metabolism cages with frozen ice packs to chill urine over the collection interval. Urine was collected 0–12, and 12–24 h post-dose. Following collection of each urine sample, the total urine weight was recorded and 3 mL aliquots were retained for LC/MS/MS analysis.
Non-compartmental analysis of time vs concentration data for ETX1317, ETX0282, CPD, and CPDP was completed using WinNonlin 8.1 (Pharsite Corporation, Mountain View CA). The maximum concentration (Cmax) was the highest observed concentration; Tmax was the earliest time at which Cmax occurred; and the elimination half-life was estimated as ln 2/kel, where kel is the elimination rate constant derived from the slope of the log concentration versus time profile. The area under the concentration–time curve from 0 h to the last time point (AUC0-tlast) was calculated by linear trapezoidal approximation. Clearance (CL) was estimated as Dose/AUC0-tlast and the steady state volume of distribution (Vd,ss) was estimated as CL* MRT, where MRT = AUMC/AUC (MRT = mean residence time and AUMC = area under the moment curve). Oral bioavailability (F) was determined from ETX1317 concentrations and normalizing doses to free acid equivalence, where F = AUCp.o.*(dosei.v.)/AUCi.v.*(dosep.o.).

Series [2] can be described thus: Plasma protein binding across species. The series is classed as in vitro ADME, monkeys, humans, mice, rats, and dogs. To be noted: monkey, human, mouse, rat, dog, range across species, 1 to 100 μM. The method, then:
Intravenous and oral pharmacokinetics of ETX1317 and ETX0282 in preclinical species are summarized in Table 7 and Table S1, respectively. Time vs concentration profiles are depicted graphically in Figure S1.
Plasma protein binding was determined by rapid equilibrium dialysis. Plasma was freshly prepared from blood samples drawn in to EDTA (anticoagulant) containing tubes. Plasma was prepared using a table-top centrifuge and spun per instruction of the tube manufacturer and specifications (Beckton, Dickinson and Company, Franklin Lakes, NJ) and placed on ice prior to use.
Pooled plasma samples were centrifuged at 2000 rpm (approximately 1400g) for 15 min at 4 °C to remove debris. Approximately 90% of the clear supernatant fraction was transferred to a separate tube. Samples (500 μL) were then spiked with a 100× stock solution 100 μM, 0.5 mM, and 10 mM ETX1317 in DMSO respectively for 1, 5, and 100 μM final concentrations, transferred to the top of the filter chambers, and allowed to equilibrate for 15 min prior to centrifugation. The filtrate tubes were centrifuged at 14000g for 15 min at 4 °C. Next, 50 μL of the filtrate was precipitated with 300 μL of acetonitrile containing 250 ng/mL of carbutamide as the internal standard and the samples were analyzed by LC/MS/MS analysis.

[3] abbreviates: male, monkey, plasma, iv, i.v. 0.87 mg/kg.

For orientation: AUC means the area under the concentration-time curve, a measure of exposure. A lower AUC goes with low exposure. In general, Cmax refers to the highest concentration seen after dosing. By half-life is commonly meant the time needed for the level to fall by half in the phase considered. Read a low half-life as rapid decline. By Vd is commonly meant the apparent volume that relates the amount in the body to the concentration in plasma or blood. What is called fraction unbound is free concentration divided by total concentration. Consider `CC1=C[C@@H](C(N)=O)N2C[C@@H]1N(O[C@H](F)C(=O)O)C2=O` [ETX1317], for which the “renal clearance as % of total clearance” value in series [1] (based upon excretion in the urine, range 23–63%) is recorded as roughly 40%. In addition, in series [1] (setting [3]), the AUC is 2680 ± 210 ng·h/mL, the Cmax is 3120 ± 230 ng/mL and the half-life was 1.1 ± 0.1 h. Also, the clearance in series [1] (male, monkey, plasma, iv, i.v. 0.87 mg/kg, read-out: CL) worked out at 5.7 ± 0.7 mL/min/kg. For the same compound, the Vd in series [1] (male, monkey, plasma, iv, i.v. 0.87 mg/kg, read-out: Vd,ss) amounted to 0.31 ± 0.02 L/kg. For the same compound, the clearance in series [1] (male, monkey, urine and plasma, iv, i.v. 0.87 mg/kg, read-out: renal CL) turned out to be 2.2 mL/min/kg. Besides, the fraction unbound at 15 min in series [2] was in the range of 0.77 to 1.
